One may read the Ki as a measure of affinity in units of concentration, obtained from inhibition or displacement. Lower therefore signals higher affinity.

Structures are written as SMILES. Active and inactive are the calls of the source. The rule behind the calls is not given here.

One assay deals with T1, Amyloid-beta precursor protein (Homo sapiens, UniProt P05067). Put plainly: Binding affinity to beta amyloid (unknown origin) isolated from alzheimer's patient brain homogenates at 50 uM after 20 min by fluorescence microscopic analysis relative to thioflavin S-treated control. Type of assay: tissue-based.
T1 sequence (P05067 whole entry): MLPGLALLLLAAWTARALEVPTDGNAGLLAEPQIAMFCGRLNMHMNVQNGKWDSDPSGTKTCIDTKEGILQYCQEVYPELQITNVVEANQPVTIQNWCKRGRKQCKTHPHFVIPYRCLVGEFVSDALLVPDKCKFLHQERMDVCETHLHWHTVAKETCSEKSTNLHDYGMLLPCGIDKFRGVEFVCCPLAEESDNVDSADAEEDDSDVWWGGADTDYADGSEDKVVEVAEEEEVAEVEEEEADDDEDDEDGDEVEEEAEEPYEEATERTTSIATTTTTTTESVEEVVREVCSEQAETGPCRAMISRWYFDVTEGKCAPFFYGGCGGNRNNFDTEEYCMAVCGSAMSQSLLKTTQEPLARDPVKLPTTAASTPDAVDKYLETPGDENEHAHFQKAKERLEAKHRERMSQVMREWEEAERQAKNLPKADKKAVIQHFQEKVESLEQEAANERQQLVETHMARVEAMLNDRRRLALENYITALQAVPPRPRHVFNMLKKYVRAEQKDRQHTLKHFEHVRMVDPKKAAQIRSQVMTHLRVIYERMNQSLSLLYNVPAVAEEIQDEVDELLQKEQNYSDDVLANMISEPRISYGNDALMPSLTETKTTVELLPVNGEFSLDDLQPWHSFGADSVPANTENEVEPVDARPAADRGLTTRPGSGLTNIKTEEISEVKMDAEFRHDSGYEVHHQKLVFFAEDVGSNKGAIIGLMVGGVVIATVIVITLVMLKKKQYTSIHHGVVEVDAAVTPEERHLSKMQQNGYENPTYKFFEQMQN
Consider `COc1ccc2nc(/N=C/c3ccc(N(C)C)cc3)sc2c1`, for which the outcome was Active.

Another assay concerns the target T1, Amyloid-beta precursor protein. The experiment in a line: Displacement of [125I]IMPY from beta amyloid (unknown origin) isolated from alzheimer's patient brain homogenates after 2 hr by gamma counting analysis.
In turn, `COc1ccc2nc(/N=C/c3ccc(I)cc3)sc2c1` had an inhibition constant Ki of 103 nM.
For `COc1ccc2nc(/N=C/c3ccc([N+](=O)[O-])cc3)sc2c1`, the Ki came out at 515 nM.
Still for that read-out and setting: to `COc1ccc2nc(/N=C/c3ccc(O)cc3)sc2c1` belongs 34.7 nM; to `COc1ccc2nc(/N=C/c3ccc(Br)cc3)sc2c1`, 106 nM.
On to `COc1ccc2nc(/N=C/c3ccc(N(C)C)cc3)sc2c1`, for which the Ki amounted to 4.38 nM.
The same measure, in the same setting: the result for `COc1ccc(/C=N/c2nc3ccc(OC)cc3s2)cc1` reads 10.8 nM.

The values above are taken from ChEMBL document CHEMBL3045886, “Benzothiazole Schiff-bases as potential imaging agents for -amyloid plaques in Alzheimers disease” (Med Chem Res, 2013).
